The target in test [1] is T1, PRMT5 (Homo sapiens, UniProt O14744).
T1 construct: purchased Viva (custom protein)
The test can be described thus: PRMT5 biochemical IC50 assay with SAM as cofactor. The conditions noted are these: PRMT5, SAM as cofactor; read-out: SAM IC50.

For test [2], the target named is T1, PRMT5. The test can be described thus: PRMT5 biochemical IC50 assay with no cofactor. Particulars: PRMT5, no cofactor; read-out: No Cofactor/rel IC50. From the text:
Table 1 indicates IC50 values (μM) against PRMT5 for exemplary compounds in the presence of SAM as cofactor, with no cofactor, and with MTA as cofactor, respectively (columns 4-6). […] Ki values can be calculated from the IC50 values as described in the Examples section. As detailed in the Examples section, for the assay performed in the presence of SAM, IC50=Ki×1.5 (Ki=IC50/1.5).

The test system of test [3] is HAP1 MTAP-intact cell line. As to the kind of experiment: SDMA in-cell western assay, HAP1 MTAP-intact. It is filed as cell-based. Particulars: Homo sapiens, HAP1, SDMA in-cell western, HAP1 MTAP-intact; read-out: MTAP HAP1 intact IC50. In short, it runs like this:
(§1)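 IC50 values come from SDMA signal quantified by in-cell western in two HAP1 lines, one with native MTAP levels and one lacking MTAP.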

Test [4] has as its system HAP1 MTAP-deleted cell line. As to the kind of experiment: SDMA in-cell western assay, HAP1 MTAP-deleted. It is filed as cell-based. Particulars: for IC50: Homo sapiens, HAP1, SDMA in-cell western, HAP1 MTAP-deleted, read-out: HAP1 MTAP deleted IC50; for MTAP intact/deleted ratio: IC50 ratio HAP1 MTAP-intact / HAP1 MTAP-deleted, SDMA in-cell western. In short, it runs like this: as §1

Test [5] concerns the target T1, PRMT5. As to the kind of experiment: PRMT5 biochemical IC50 assay with MTA as cofactor. Particulars: PRMT5, MTA as cofactor; read-out: MTA IC50.
Test [6] relates to HAP1 MTAP-deleted cell line. As to the kind of experiment: Viability assay, MTAP-deleted cell line. It is filed as cell-based. Particulars: Homo sapiens, HAP1, viability assay, HAP1 MTAP-deleted; read-out: HAP1 MTAP deleted viability. The source says:
Table 1 additionally indicates IC50 values in a viability assay for the MTAP-deleted cell line (column 10), indicating the effect of treatment with compound on cell survival.

T1 sequence (O14744 whole entry): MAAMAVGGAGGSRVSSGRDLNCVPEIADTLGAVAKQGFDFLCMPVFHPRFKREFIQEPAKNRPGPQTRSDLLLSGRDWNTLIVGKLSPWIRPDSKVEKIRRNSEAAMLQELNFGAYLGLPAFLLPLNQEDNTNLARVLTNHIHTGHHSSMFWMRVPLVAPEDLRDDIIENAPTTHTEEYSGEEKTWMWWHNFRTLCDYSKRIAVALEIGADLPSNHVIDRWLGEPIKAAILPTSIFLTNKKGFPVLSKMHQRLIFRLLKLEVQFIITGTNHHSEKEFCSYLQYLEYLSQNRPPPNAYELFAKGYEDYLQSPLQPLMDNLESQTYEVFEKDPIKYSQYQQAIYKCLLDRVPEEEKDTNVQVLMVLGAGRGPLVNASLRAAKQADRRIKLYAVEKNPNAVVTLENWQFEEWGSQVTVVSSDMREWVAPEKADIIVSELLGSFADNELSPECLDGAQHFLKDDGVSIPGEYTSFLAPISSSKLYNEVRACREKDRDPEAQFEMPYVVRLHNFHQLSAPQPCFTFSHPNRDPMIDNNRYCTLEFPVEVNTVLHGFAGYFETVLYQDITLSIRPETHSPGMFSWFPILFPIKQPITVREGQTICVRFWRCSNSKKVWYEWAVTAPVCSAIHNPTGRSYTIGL
T1 sequence (Q9BQA1 whole entry partner): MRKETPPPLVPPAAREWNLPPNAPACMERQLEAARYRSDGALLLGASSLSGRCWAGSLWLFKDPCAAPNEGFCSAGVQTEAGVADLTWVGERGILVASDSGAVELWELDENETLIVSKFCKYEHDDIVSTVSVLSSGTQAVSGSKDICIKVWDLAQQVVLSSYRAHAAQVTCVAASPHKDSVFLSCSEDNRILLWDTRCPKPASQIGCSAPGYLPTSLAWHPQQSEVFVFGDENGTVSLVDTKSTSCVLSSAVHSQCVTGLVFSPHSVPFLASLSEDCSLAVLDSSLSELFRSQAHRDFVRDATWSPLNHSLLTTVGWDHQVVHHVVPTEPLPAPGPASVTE

In the case of `COc1ncc(NC(=O)C(=O)N2C[C@@H](C)CC[C@@H]2c2ccc(-c3cncs3)cc2)cc1C(N)=O` (single isomer, unassigned) [Compound 842, 2-methoxy-5-(2-(5-methyl-2-(4-(thiazol-5-yl)phenyl)piperidin-1-yl)-2-oxoacetamido)nicotinamide], the IC50 in test [1] was above 500 nM; in test [2], above 500 nM; in test [3], above 1000 nM; in test [4], above 1000 nM; in test [5] it was above 500 nM; in test [6], above 10 µM. For the same molecule, the MTAP intact/deleted ratio entry in test [4] is reported as “B (an IC50 ratio greater than or equal to 3 fold but lower than 10 fold)”.

As to `CNC(=O)c1ccc([C@@H]2CC[C@@H](C)CN2C(=O)C(=O)Nc2cnc(OC)c(C(N)=O)c2)s1` (single isomer, unassigned) [Compound 843], the IC50 is above 500 nM in test [1]; above 500 nM in test [2]; above 1000 nM in test [3]; above 1000 nM in test [4]; above 500 nM in test [5]; above 10 µM in test [6]. For the same molecule, the MTAP intact/deleted ratio entry in test [4] is listed as “B (an IC50 ratio greater than or equal to 3 fold but lower than 10 fold)”.

In the case of `COc1ncc(NC(=O)C(=O)N2C[C@H](C)CC[C@H]2c2ccc(C(N)=O)s2)cc1C(N)=O` (single isomer, unassigned) [Compound 844], the IC50 in test [1] was above 500 nM; in test [2], above 500 nM; in test [3], above 1000 nM; in test [4] it was above 1000 nM; in test [5], above 500 nM; in test [6], above 10 µM. The MTAP intact/deleted ratio entry in test [4] is given as “C (an IC50 ratio of less than 3 fold)”.

With `CCc1cc(NC(=O)C(=O)N2C[C@@H](C)CC[C@@H]2c2ccc(C(N)=O)s2)cnc1N` (single isomer, unassigned) [Compound 845], the IC50 in test [1] was above 500 nM; in test [2] it was above 500 nM; in test [3], above 1000 nM; in test [4], above 1000 nM; in test [5], above 500 nM; in test [6], above 10 µM. Moreover, the MTAP intact/deleted ratio entry in test [4] is listed as “B (an IC50 ratio greater than or equal to 3 fold but lower than 10 fold)”.

In the case of `Cc1cc(NC(=O)C(=O)N2C[C@H](C)CC[C@H]2c2cc(F)c(F)c(Cl)c2)cnc1N` (single isomer, unassigned) [Compound 847], the IC50 in test [1] was above 500 nM; in test [2] it was above 500 nM; in test [3], above 1000 nM; in test [4], above 1000 nM; in test [5] it was above 500 nM; in test [6] it was above 10 µM. For the same molecule, the MTAP intact/deleted ratio result in test [4] is “C (an IC50 ratio of less than 3 fold)”.

In the case of `Cc1cc(NC(=O)C(=O)N2C[C@H](C)CC[C@H]2c2ccc(N)nc2)cnc1N` (single isomer, unassigned) [Compound 848], the IC50 is 50 to 500 nM in test [1]; below 50 nM in test [2]; 100 to 1000 nM in test [3]; below 100 nM in test [4]; below 50 nM in test [5]; below 1 µM in test [6]. Also, the MTAP intact/deleted ratio entry in test [4] was “A (an IC50 ratio greater than or equal to 10 fold)”.

For `CNC(=O)c1ccc([C@@H]2CC[C@@H](C)CN2C(=O)C(=O)Nc2cnc(N)c(C)c2)s1` (single isomer, unassigned) [Compound 849], the IC50 in test [1] was above 500 nM; in test [2] it was above 500 nM; in test [3], above 1000 nM; in test [4], above 1000 nM; in test [5], above 500 nM; in test [6], above 10 µM. In addition, the MTAP intact/deleted ratio entry in test [4] is given as “C (an IC50 ratio of less than 3 fold)”.

On to `COc1ncc(NC(=O)C(=O)N2C[C@@H](C)CC[C@@H]2c2ccc(NS(C)(=O)=O)cc2)cc1C(N)=O` (single isomer, unassigned) [Compound 850], for which the IC50 in test [1] is above 500 nM; in test [2], above 500 nM; in test [3] it was above 1000 nM; in test [4], above 1000 nM; in test [5] it was above 500 nM; in test [6] it was above 10 µM. Besides, in test [4], the MTAP intact/deleted ratio result was “C (an IC50 ratio of less than 3 fold)”.

In the case of `CCc1cc(NC(=O)C(=O)N2C[C@@H](C)CC[C@@H]2c2ccc(N)nc2)cnc1N` (single isomer, unassigned) [Compound 851], the IC50 was 50 to 500 nM in test [1]; below 50 nM in test [2]; 100 to 1000 nM in test [3]; below 100 nM in test [4]; below 50 nM in test [5]; below 1 µM in test [6]. Also, the MTAP intact/deleted ratio entry in test [4] is given as “A (an IC50 ratio greater than or equal to 10 fold)”.

With `CNc1nc2cc([C@H]3CC[C@H](C)CN3C(=O)C(=O)Nc3cnc(N)c(C)c3)ccc2s1` (single isomer, unassigned) [Compound 852], the IC50 in test [1] is 50 to 500 nM; in test [2], below 50 nM; in test [3], 100 to 1000 nM; in test [4], below 100 nM; in test [5] it was below 50 nM; in test [6], below 1 µM. In addition, the MTAP intact/deleted ratio result in test [4] is given as “A (an IC50 ratio greater than or equal to 10 fold)”.

As to `CNc1nc2cc([C@@H]3CC[C@@H](C)CN3C(=O)C(=O)Nc3cnc(N)c(C)c3)ccc2s1` (single isomer, unassigned) [Compound 855], the IC50 in test [1] is above 500 nM; in test [2] it was above 500 nM; in test [3] it was above 1000 nM; in test [4], above 1000 nM; in test [5] it was above 500 nM; in test [6] it was above 10 µM. For the same molecule, the MTAP intact/deleted ratio result in test [4] was “C (an IC50 ratio of less than 3 fold)”.

On to `CCc1cc(NC(=O)C(=O)N2C[C@H](C)CC[C@H]2c2ccc(N)nc2)cnc1N` (single isomer, unassigned) [Compound 856], for which the IC50 in test [1] was above 500 nM; in test [2], above 500 nM; in test [3], above 1000 nM; in test [4], above 1000 nM; in test [5] it was above 500 nM; in test [6], above 10 µM. The MTAP intact/deleted ratio result in test [4] is recorded as “B (an IC50 ratio greater than or equal to 3 fold but lower than 10 fold)”.

Regarding `Cc1cc(NC(=O)C(=O)N2C[C@@H](C)CC[C@@H]2c2cc(F)c(F)c(Cl)c2)cnc1N` (single isomer, unassigned) [Compound 857], the IC50 is 50 to 500 nM in test [1]; 50 to 500 nM in test [2]; above 1000 nM in test [3]; below 100 nM in test [4]; below 50 nM in test [5]; 1 to 10 µM in test [6]. Besides, the MTAP intact/deleted ratio entry in test [4] is “A (an IC50 ratio greater than or equal to 10 fold)”.

With `COc1ncc(NC(=O)C(=O)N2C[C@H](C)CC[C@H]2c2ccc(NS(C)(=O)=O)cc2)cc1C(N)=O` (single isomer, unassigned) [Compound 858], the IC50 in test [1] was 50 to 500 nM; in test [2], below 50 nM; in test [3], above 1000 nM; in test [4] it was below 100 nM; in test [5], below 50 nM; in test [6] it was 1 to 10 µM. In addition, the MTAP intact/deleted ratio result in test [4] is “A (an IC50 ratio greater than or equal to 10 fold)”.

In the case of `CNC(=O)c1ccc([C@H]2CC[C@H](C)CN2C(=O)C(=O)Nc2cnc(N)c(C)c2)s1` (single isomer, unassigned) [Compound 859], the IC50 in test [1] was 50 to 500 nM; in test [2] it was below 50 nM; in test [3], 100 to 1000 nM; in test [4], below 100 nM; in test [5], below 50 nM; in test [6], below 1 µM. Also, the MTAP intact/deleted ratio result in test [4] is “A (an IC50 ratio greater than or equal to 10 fold)”.

For the origin of these results see patent US11999727B2 (Tango Therapeutics, Inc., priority 2020, dated 2024).
